Reference: publication PMC6351562, “Structure, function, and inhibition of drug reactivating human gut microbial β-glucuronidases” (Scientific Reports, 2019)
Where two headings read alike, the source gives them in different places.

What was measured:
[1] = target: T1, Bacteroides fragilis GUS (BfGUS) (Bacteroides fragilis, UniProt Q5LIC7); experiment: In vitro inhibition assay (pNPG hydrolysis); assay type: biochemical
[2] = target: T2, Bacteroides uniformis GUS (BuGUS) (Bacteroides uniformis, UniProt A0A078SUX9); experiment: In vitro inhibition assay (pNPG hydrolysis); assay type: biochemical
T2 sequence (A0A078SUX9 32-886): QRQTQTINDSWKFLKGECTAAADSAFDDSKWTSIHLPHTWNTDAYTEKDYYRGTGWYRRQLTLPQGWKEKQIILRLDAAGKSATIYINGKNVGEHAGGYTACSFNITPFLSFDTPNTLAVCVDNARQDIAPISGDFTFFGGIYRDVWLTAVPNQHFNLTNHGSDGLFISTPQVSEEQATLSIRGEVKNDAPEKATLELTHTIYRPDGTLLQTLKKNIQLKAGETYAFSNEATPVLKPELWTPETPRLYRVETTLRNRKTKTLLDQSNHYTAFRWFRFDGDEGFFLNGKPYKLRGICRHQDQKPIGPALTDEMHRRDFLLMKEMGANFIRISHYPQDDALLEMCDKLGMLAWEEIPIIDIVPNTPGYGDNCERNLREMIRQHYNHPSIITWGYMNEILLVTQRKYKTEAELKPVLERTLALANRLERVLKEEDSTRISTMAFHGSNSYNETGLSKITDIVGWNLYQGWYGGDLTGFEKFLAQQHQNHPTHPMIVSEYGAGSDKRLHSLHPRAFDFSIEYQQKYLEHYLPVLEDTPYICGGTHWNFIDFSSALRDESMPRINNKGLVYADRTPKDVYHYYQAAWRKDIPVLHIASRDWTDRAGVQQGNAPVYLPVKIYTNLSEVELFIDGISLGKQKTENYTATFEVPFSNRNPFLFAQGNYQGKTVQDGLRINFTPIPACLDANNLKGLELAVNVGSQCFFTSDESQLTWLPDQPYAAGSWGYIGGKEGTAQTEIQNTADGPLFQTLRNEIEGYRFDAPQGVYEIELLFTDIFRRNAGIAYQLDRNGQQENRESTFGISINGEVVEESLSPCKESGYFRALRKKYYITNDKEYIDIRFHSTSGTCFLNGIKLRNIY

[3] = target: T3, Eubacterium eligens GUS (EeGUS) (Lachnospira eligens, UniProt C4Z6Z2); experiment: In vitro inhibition assay (pNPG hydrolysis); assay type: biochemical; conditions: pNPG 900 µM
T3 sequence (C4Z6Z2 1-611): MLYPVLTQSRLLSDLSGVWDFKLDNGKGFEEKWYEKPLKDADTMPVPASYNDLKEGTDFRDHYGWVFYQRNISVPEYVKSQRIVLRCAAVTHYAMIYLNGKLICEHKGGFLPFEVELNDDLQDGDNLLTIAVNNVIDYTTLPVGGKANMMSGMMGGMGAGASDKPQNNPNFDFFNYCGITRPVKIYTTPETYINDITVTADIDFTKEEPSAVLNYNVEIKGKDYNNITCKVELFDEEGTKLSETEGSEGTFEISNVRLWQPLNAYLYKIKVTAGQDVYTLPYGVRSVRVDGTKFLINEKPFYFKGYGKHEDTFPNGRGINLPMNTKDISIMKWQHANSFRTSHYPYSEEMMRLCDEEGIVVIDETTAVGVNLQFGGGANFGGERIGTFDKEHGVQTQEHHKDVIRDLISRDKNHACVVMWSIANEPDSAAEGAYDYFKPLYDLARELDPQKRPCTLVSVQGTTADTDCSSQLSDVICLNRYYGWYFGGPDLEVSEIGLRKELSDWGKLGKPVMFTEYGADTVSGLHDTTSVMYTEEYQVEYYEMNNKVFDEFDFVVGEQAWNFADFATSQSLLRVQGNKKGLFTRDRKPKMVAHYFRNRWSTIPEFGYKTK

E. coli GUS (EcGUS) [4] = target: T4, E. coli GUS (EcGUS) (Escherichia coli, UniProt P05804); parameters: method as in PMID 21051639, PMID 26364932, PMID 30062115; conditions: earlier work; cited from earlier work
[5] = target: T5, Streptococcus agalactiae GUS (SaGUS) (Streptococcus agalactiae serotype V, UniProt Q8E0N2); experiment: In vitro inhibition assay (pNPG hydrolysis); assay type: biochemical; conditions: for IC50: pNPG 900 µM
T5 construct: 6x His; made in house

[6] = target: Clostridium perfringens GUS (CpGUS) (Clostridium perfringens, UniProt Q8VNV4); experiment: biochemical; assay type: biochemical
E. coli GUS (EcGUS) [7] = target: T4, E. coli GUS (EcGUS); experiment: In vitro inhibition assay (pNPG hydrolysis); assay type: biochemical; conditions: for IC50: pNPG 900 µM, 1 hour end point
[8] = target: T1, Bacteroides fragilis GUS (BfGUS); parameters: method as in PMID 21051639, PMID 26364932, PMID 30062115; conditions: earlier work; cited from earlier work
[9] = target: T6, Faecalibacterium prausnitzii GUS (FpGUS) (Faecalibacterium duncaniae, UniProt C7H4D2); experiment: In vitro inhibition assay (pNPG hydrolysis); assay type: biochemical; conditions: for IC50: pNPG 900 µM
T6 sequence (C7H4D2 1-608): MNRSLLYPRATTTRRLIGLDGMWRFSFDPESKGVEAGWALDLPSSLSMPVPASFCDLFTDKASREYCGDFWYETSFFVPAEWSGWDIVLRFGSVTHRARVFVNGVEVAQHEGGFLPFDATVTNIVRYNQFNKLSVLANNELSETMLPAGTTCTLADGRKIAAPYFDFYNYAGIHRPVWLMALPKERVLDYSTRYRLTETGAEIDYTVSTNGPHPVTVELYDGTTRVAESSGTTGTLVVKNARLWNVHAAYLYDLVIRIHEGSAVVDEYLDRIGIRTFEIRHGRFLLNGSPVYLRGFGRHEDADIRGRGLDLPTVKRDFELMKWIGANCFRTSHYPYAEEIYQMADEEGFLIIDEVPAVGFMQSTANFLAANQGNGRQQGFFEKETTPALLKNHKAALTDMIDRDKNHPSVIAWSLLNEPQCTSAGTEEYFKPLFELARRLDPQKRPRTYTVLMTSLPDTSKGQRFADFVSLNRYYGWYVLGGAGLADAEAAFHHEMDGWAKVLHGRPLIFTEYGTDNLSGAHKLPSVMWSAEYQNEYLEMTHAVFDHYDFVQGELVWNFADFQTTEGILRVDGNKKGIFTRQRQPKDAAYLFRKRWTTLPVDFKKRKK

[10] = read-out: Inhibitor 1 (IC50, nM) pH 7.5, pH 7.5, pNPG 900 µM
[11] = Inhibitor 1 (IC50, nM) pH 6.5, pH 6.5
[12] = Inhibitor 1 (IC50, nM) pH 7.5, pH 7.5
[13] = read-out: inhibition at 100 µM Inhibitor 1, 100 µM, pH 6.5 and 7.5
[14] = pH 7.5, pNPG 900 µM, read-out: UNC10201652 (IC50, nM) pH 7.5
[15] = read-out: UNC10201652 (IC50, nM) pH 6.5
[16] = pH 6.5, 1 hour end point, read-out: UNC10201652 (IC50, nM) pH 6.5
[17] = pH 7.5, 1 hour end point, read-out: UNC10201652 (IC50, nM) pH 7.5
[18] = pH 6.5, read-out: UNC10201652 (IC50, nM) pH 6.5
[19] = pH 7.5, read-out: UNC10201652 (IC50, nM) pH 7.5

T4 sequence (P05804 whole entry): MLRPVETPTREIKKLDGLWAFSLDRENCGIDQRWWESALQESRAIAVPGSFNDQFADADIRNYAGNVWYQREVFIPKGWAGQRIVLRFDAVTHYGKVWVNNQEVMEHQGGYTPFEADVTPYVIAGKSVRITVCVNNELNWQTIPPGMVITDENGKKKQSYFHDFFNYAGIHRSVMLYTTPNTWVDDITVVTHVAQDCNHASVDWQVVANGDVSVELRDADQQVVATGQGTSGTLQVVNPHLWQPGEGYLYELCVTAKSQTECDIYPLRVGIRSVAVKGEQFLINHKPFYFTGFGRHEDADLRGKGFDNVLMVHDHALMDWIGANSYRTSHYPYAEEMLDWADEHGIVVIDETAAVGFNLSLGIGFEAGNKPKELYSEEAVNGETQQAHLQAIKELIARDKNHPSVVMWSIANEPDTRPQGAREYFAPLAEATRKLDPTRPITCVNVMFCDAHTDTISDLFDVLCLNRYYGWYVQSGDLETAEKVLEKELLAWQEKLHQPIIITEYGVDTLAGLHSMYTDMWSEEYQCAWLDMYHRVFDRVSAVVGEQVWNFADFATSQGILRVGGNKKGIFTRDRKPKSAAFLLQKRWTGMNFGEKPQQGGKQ
T5 sequence (Q8E0N2 whole entry): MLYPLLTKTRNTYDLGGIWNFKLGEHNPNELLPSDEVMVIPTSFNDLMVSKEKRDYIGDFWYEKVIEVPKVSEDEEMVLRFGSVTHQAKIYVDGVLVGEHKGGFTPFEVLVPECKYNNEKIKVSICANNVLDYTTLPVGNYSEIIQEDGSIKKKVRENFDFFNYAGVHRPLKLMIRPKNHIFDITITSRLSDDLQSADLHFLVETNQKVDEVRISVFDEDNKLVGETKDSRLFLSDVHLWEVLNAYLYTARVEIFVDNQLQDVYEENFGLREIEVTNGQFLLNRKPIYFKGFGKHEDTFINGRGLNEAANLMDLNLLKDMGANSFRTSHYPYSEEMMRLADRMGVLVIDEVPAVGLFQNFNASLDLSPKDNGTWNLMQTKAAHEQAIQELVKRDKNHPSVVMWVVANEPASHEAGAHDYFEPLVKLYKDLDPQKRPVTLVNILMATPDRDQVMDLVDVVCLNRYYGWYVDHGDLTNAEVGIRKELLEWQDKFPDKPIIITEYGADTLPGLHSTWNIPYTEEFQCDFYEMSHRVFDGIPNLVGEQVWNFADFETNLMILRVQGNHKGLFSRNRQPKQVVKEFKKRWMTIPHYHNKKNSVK
T1 sequence (Q5LIC7 whole entry): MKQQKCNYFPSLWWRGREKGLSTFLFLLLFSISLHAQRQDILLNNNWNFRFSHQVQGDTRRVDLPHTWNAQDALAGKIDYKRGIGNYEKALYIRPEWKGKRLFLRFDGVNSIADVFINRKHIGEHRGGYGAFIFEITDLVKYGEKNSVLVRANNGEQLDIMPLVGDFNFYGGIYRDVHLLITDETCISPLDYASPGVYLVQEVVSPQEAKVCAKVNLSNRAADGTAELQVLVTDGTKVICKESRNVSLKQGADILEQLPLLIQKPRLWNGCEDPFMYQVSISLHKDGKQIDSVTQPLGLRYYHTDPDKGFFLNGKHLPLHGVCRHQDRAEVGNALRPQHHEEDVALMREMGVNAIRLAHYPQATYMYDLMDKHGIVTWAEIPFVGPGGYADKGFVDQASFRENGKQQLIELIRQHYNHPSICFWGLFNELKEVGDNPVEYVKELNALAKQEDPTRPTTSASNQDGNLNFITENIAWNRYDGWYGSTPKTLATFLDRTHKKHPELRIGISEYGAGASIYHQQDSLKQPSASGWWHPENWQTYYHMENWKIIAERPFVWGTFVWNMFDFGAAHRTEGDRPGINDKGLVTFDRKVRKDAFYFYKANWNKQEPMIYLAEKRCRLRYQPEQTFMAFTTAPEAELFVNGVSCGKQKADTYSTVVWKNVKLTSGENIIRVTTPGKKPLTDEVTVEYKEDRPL

`CCOc1ccc(NC(=S)N(CCO)Cc2cc3cc(C)cc(C)c3[nH]c2=O)cc1` [Inhibitor 1] showed an IC50 [1] of over 100000 nM, an IC50 [1, 10] of over 100000 nM and an IC50 [2] of over 100000 nM. For the same compound, the IC50 [2, 10] was over 100000 nM, the IC50 [3, 11] was over 100000 nM and the IC50 [3, 12] was over 100000 nM. The “inhibition of EcGUS (in words)” value (E. coli GUS (EcGUS) [4]) was “potent”, the IC50 [5, 11] was over 25000 nM and the IC50 [5, 12] was over 25000 nM. For the same compound, the inhibition at 100 µM [5, 13] was at least 80%, the IC50 ([6]; Inhibitor 1 (IC50, nM) pH 6.5) was over 100000 nM and the IC50 ([6]; Inhibitor 1 (IC50, nM) pH 7.5) was over 100000 nM. For the same compound, the inhibition at 100 µM (E. coli GUS (EcGUS) [7]; [13]) was at least 80%, the “inhibition of BfGUS (in words)” value [8] was “did not inhibit” and the IC50 [9, 11] was over 100000 nM. For the same compound, the IC50 [9, 12] was over 100000 nM.
In the case of `C1CCc2c(c(N3CCOCC3)nc3sc4c(N5CCNCC5)nnnc4c23)C1` [UNC10201652], the “inhibition (in words)” value ([1]; UNC10201652, text in picture of Fig. 7b) is reported as “No Inhibition”, the IC50 [1, 14] is reported as over 100000 nM and the IC50 [1, 15] is reported as over 100000 nM. For the same compound, the “inhibition (in words)” value ([2]; UNC10201652, text in picture of Fig. 7c) was “No Inhibition”, the IC50 [2, 14] was over 100000 nM and the IC50 [2, 15] was over 100000 nM. The IC50 [3, 16] was 1900 ± 100 nM, the IC50 [3, 17] was 410 ± 30 nM and the “inhibition of EcGUS (in words)” value (E. coli GUS (EcGUS) [4]) was “potent”. The IC50 [5, 16] was 450 ± 30 nM, the IC50 [5, 17] was 133 ± 3 nM and the “decrease in potency from pH 7.5 to pH 6.5” value [6] was 6 fold. For the same compound, the IC50 ([6]; IC50) was 26 to 160 nM, the IC50 [6, 18] was 160 ± 10 nM and the IC50 [6, 19] was 26 ± 3 nM. The “decrease in potency from pH 7.5 to pH 6.5” value (E. coli GUS (EcGUS) [7]; UNC10201652, IC50 pH 6.5 vs pH 7.5) was 3 fold, the IC50 (E. coli GUS (EcGUS) [7]; [18]) was 310 ± 20 nM and the IC50 (E. coli GUS (EcGUS) [7]; [19]) was 100 ± 8 nM. The “potency relative to Inhibitor 1” value (E. coli GUS (EcGUS) [7]; pH 7.5, times more potent than Inhibitor 1) was 19 times, the “inhibition of BfGUS (in words)” value [8] was “did not inhibit” and the inhibition at 100 µM ([9]; 100 µM, pH 6.5, read-out: inhibition at 100 µM UNC10201652) was under 80%. For the same compound, the IC50 [9, 18] was over 100000 nM and the IC50 [9, 17] was over 3000 nM.
